Consider ten compounds from patent US4073917A, “Local anesthetics tertiary aminoalkoxyphenyl ethers” (priority 1974, dated 1978).

Structures are written as SMILES.

One data set concerns mice. As to conditions: s.c.; taken from Adams et al; cited from earlier work.
Another data set deals with sciatic nerve. Briefly: infiltration anesthesia, sciatic nerve block in the intact guinea-pig (Shackell). Format: in vivo. Here is the method:
B. The compounds according to the invention were also tested as to onset and duration of local anesthetic effect at parenteral administration (infiltration anesthesia). […] Four animals were used at each test. The results are depicted in the following table:
The reference compound being used at this test is 2-(N-ethyl-n-propylamino)-2',6'-n-butyroxylidide (etidocaine).

The subject of data set [1] is back of the guinea-pig (intact skin). Briefly: surface anesthesia by epicutaneous application to intact skin, pricking test as in the intracutaneous wheal test. Format: in vivo, guinea-pig (Dunkin-Hartley, males). As to conditions: for Local anesthetic efficiency (percentage block during the 25 min testing period): ± s.e.m. An excerpt:
A. Guinea-pigs (Dunkin-Hartley, males, 4-6 weeks of age 350±50 g) were shaved and depilated. A gauze folded twice (23 mm diameter) was put into the test solution and thereafter in a plastic cup (outer diameter 26 mm, inner diameter 24 mm, inner height 4 mm). The cup with the gauze saturated with test solution was attached to the back of the animal as an occlusive dressing fastened with plaster (25 mm width) wound around the body). […] After the end of the contact time the site of contact was washed and marked with a fatty chalk. With a sharp instrument (e.g. cannula or a pair of tweezers) the place was pricked six times and registering was made as in the intracutaneous wheal test (Bulbring-Wajda: J. Pharmacol., 1945, 85, p 78) on the back of the guinea-pig, i.e. by registering the presence or absence of a characteristic ripple of the skin of the back of the animal. Every pricking which gives no skin contraction was counted. The test was repeated at regular intervals of 5 min, during an interval of 30 min from the end of the application period. The test gives an indication of onset time, depth and duration of block. The percentage block during the 25 min testing period was used as an index for efficiency. The test solution consisted of the test compound (base) dissolved to 10% (w/v, g/ml) in a mixture of isopropanol (65%: v/v), glycerol (25%: v/v) and water (10%: v/v).
The compound according to Example 1 (RAP 411) was tested also with varying concentrations and in the form of a hydrochloride salt in aqueous solution.

Data set [2] in a line: acute toxicity in mice (LD 50). As to conditions: mouse, in vivo. Here is the method:
C. The acute toxicity for the base forms of a number of the new compounds were tested in mice.

Setting [3] is: 5% base in the alcoholic mixture.
Where [4] appears, read: 10% (w/v) base in isopropanol 65%/glycerol 25%/water 10%, time of contact 30 min.
Setting [5] is: 10% hydrochloride in aqueous solution.

`CCCN(CC)C(CC)C(=O)Nc1c(C)cccc1C` (centres unmarked) [Etidocaine, 2-(N-ethyl-n-propylamino)-2',6'-n-butyroxylidide]: the “LD 50 (base)” value in the data set with mice was 99 mg/kg. In the data set on sciatic nerve (conc. 0.5%, pH 6.0), the “Flexion reflex block, duration” value is 84 ± 17 min; the “Flexion reflex block, onset” value lay within 1 to 2 min; the “Motor paralysis, duration” value came out at 131 ± 13 min; the “Motor paralysis, onset” value was determined as 1 min.
Consider `CCCCOc1ccccc1OCCN(C(C)C)C(C)C` [Example 1, 1-n-Butoxy-2-(2'-diisopropylaminoethoxy)-benzene], for which, in data set [1] (setting [3]), the anesthesia entry is on record as “complete anesthesia” and the “duration of complete anesthesia” value was “at least 30 min”. In addition, in data set [1] (setting [4]), the “Local anesthetic efficiency (percentage block during the 25 min testing period)” value is listed as 99.3 ± 0.7%. The LD50 in data set [2] (iv) stood at 15 mg/kg. Further, in data set [2] (sc), the LD50 is 250 mg/kg. Further, in the data set on sciatic nerve (conc. 0.5%, pH 6.0), the “Flexion reflex block, onset” value is on record as 1 min and the “Motor paralysis, onset” value is recorded as 1 min.
Regarding `CCCOc1ccccc1OCCN(C(C)C)C(C)C` [Example 2, 1-n-Propoxy-2-(2'-diisopropylaminoethoxy)-benzene], in data set [1] (setting [4]), the “Local anesthetic efficiency (percentage block during the 25 min testing period)” value is listed as 98.6 ± 0.8%.
Turning to `CC(C)COc1ccccc1OCCN(C(C)C)C(C)C` [Example 3, 1-Isobutoxy-2-(2'-diisopropylaminoethoxy)-benzene], the “Local anesthetic efficiency (percentage block during the 25 min testing period)” value in data set [1] (setting [4]) was determined as 97.2 ± 2.8%. Besides, the figures for the LD50 in data set [2] (iv) and in data set [2] (sc) were 14 mg/kg and 300 mg/kg, respectively.
As to `CCN(CC)CCOc1ccccc1OCC(C)C` [Example 4, 1-Isobutoxy-2-(2'-diethylaminoethoxy)-benzene], the “Local anesthetic efficiency (percentage block during the 25 min testing period)” value in data set [1] (setting [4]) was found to be 97.2 ± 2.8%. The compound also gave an LD50 in data set [2] (iv) of 18 mg/kg.
The corresponding values for `CCN(CC)CCCOc1ccccc1OCC(C)C` [Example 5, 1-Isobutoxy-2-(3'-diethylaminopropoxy)-benzene] are 75.7 ± 9.4% and 14 mg/kg.
For the compound `CCCCOc1ccccc1OCCN1CCCCC1` [Example 6, 1-n-Butoxy-2-(2'-piperidinoethoxy)-benzene], the “Local anesthetic efficiency (percentage block during the 25 min testing period)” value in data set [1] (10% (w/v) base in alcoholic mixture, time of contact 15 min) stood at 79.2 ± 12.6%. Also, the LD50 in data set [2] (iv) was 9 mg/kg.
Consider `CCN(CC)CC(=O)Nc1c(C)cccc1C` [Lidocaine, diethylaminoacet-2,6-xylidide], for which, in the data set on sciatic nerve (conc. 2.0%, pH 6.9), the “Flexion reflex block, duration” value worked out at 57 ± 7 min; the “Flexion reflex block, onset” value lay within 1 to 2 min; the “Motor paralysis, duration” value stood at 78 ± 5 min; the “Motor paralysis, onset” value is 1 min.
For the compound `CCCCOc1ccccc1OCCN(C(C)C)C(C)C.Cl` [RAP 411 hydrochloride, 1-n-butoxy-2-(2'-diisopropylaminoethoxy)-benzene hydrochloride], in data set [1] (setting [5]), the anesthesia result is “complete anesthesia” and the “duration of complete anesthesia” value is recorded as “at least 30 min”.
For `CCN(CC)CCOc1ccccc1OC` [RAP 419, o-methoxy-(diethylaminoethoxy)-benzene, reference compound], the “Local anesthetic efficiency (percentage block during the 25 min testing period)” value in data set [1] (setting [4]) worked out at 0%.
